Measurements taken from patent US20140155397A1, “EMT SIGNATURES AND PREDICTIVE MARKERS AND METHOD OF USING THE SAME” (Board of Regents, priority 2011, published 2014).

Columns and labels:
NSCLC cell lines = assay: Drug sensitivity (growth inhibition, MTS assay) of epithelial versus mesenchymal NSCLC cell lines; format: cell-based
Source text: Average values were used for analysis as described. […] Chou T. C., et al., Quantitative Analysis of Dose-Effect Relationships: The Combined Effects of Multiple Drugs or Enzyme Inhibitors. Adv Enzyme Regul.
The EMT signature was derived in 54 DNA fingerprinted NSCLC cell lines profiled on Affymetrix U133A, B, and Plus2.0 arrays and tested on the Illumina WGv2 and WGv3 platforms and in an independent set of head and neck cancer lines (HNC). E-cadherin and other protein levels were quantified by reverse phase protein array and correlated with the first principal component of the EMT signature. IC50s were determined for NSCLC cell lines by MTS assay. Response to erlotinib was evaluated in patients treated in the BATTLE clinical trial using eight-week disease […] and progression free survival.

PDGFRβ = PDGFRβ (Homo sapiens, UniProt P09619); assay: Protein kinase panel; format: biochemical
Source text: (§1) Purified recombinant AXL kinase was used to screen a library of structures with appropriate drug-like scaffolds to identify potential inhibitors. Hits from the screen were confirmed and r analyzed by selection criteria including Lipinski rules. One pyrrolopyrimidine-based compound was selected for structure-activity relationship efforts. Optimization of this scaffold and subsequent evaluation led to the generation of compound SG1-7079 as the lead candidate inhibitor (FIG. 10). […] SGI-7079 was screened against a panel of protein kinases to determine both selectivity and biochemical potency.

Ret = Ret (Homo sapiens, UniProt P07949); assay: Protein kinase panel; format: biochemical
Source text: as §1

Tyro3 = target: T1, Tyro3 (Homo sapiens, UniProt Q06418); assay: Protein kinase panel; format: biochemical
T1 sequence (Q06418 41-890): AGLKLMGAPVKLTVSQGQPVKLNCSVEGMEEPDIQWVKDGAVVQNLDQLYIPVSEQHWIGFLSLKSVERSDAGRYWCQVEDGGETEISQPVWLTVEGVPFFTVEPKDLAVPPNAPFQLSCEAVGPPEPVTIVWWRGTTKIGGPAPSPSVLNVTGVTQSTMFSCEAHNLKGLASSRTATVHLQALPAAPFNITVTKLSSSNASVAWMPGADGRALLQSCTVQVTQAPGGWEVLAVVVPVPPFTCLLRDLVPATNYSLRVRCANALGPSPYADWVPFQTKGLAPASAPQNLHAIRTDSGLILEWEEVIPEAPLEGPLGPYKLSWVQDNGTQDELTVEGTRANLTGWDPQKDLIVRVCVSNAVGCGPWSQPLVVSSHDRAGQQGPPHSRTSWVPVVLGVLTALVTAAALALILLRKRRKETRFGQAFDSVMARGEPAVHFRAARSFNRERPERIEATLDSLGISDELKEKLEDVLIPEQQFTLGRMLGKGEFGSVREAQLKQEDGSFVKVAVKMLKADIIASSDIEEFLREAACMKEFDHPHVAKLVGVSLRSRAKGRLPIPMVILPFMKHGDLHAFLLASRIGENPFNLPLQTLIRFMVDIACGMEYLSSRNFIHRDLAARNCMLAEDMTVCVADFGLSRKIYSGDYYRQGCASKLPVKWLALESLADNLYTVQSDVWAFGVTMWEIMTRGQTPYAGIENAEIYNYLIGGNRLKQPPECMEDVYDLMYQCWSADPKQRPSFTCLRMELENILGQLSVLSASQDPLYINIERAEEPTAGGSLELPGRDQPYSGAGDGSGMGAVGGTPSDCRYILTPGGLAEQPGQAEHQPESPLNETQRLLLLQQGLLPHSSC
Source text: as §1

TrkA = TrkA (Homo sapiens, UniProt P04629); assay: Protein kinase panel; format: biochemical
Source text: as §1

MER = target: T2, MER (Homo sapiens, UniProt Q12866); assay: Protein kinase panel; format: biochemical
T2 sequence (Q12866 21-999): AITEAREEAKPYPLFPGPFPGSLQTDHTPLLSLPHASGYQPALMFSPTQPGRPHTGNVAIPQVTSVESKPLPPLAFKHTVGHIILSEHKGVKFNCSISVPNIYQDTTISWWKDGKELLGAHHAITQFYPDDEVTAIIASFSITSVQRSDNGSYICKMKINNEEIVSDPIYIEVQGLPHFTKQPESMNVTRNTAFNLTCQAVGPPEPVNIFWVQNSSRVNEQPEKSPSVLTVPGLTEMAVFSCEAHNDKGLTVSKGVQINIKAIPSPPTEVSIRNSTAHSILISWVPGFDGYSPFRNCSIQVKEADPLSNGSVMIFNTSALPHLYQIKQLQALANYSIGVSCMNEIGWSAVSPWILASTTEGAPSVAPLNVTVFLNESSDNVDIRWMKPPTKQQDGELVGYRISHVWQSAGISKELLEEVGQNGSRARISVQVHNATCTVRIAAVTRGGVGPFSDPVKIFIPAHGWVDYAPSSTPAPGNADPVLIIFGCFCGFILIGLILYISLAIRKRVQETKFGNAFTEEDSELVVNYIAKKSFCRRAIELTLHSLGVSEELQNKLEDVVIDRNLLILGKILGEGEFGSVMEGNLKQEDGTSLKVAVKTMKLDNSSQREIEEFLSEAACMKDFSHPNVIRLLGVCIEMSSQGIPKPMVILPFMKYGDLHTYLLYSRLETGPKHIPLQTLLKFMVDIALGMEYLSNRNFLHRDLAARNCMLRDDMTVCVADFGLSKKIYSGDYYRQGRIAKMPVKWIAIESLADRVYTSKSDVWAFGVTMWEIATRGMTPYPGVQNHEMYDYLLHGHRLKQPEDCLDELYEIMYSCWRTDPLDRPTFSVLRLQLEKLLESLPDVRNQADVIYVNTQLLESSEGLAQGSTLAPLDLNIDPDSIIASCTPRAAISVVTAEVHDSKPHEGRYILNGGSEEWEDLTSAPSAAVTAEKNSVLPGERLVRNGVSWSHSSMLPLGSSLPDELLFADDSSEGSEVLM
Source text: as §1

Flt1 = Flt1 (Homo sapiens, UniProt P17948); assay: Protein kinase panel; format: biochemical
Source text: as §1

Jak2 = Jak2 (Homo sapiens, UniProt O60674); assay: Protein kinase panel; format: biochemical
Source text: as §1

Chain of TrkA (P04629 33-796, species assumed): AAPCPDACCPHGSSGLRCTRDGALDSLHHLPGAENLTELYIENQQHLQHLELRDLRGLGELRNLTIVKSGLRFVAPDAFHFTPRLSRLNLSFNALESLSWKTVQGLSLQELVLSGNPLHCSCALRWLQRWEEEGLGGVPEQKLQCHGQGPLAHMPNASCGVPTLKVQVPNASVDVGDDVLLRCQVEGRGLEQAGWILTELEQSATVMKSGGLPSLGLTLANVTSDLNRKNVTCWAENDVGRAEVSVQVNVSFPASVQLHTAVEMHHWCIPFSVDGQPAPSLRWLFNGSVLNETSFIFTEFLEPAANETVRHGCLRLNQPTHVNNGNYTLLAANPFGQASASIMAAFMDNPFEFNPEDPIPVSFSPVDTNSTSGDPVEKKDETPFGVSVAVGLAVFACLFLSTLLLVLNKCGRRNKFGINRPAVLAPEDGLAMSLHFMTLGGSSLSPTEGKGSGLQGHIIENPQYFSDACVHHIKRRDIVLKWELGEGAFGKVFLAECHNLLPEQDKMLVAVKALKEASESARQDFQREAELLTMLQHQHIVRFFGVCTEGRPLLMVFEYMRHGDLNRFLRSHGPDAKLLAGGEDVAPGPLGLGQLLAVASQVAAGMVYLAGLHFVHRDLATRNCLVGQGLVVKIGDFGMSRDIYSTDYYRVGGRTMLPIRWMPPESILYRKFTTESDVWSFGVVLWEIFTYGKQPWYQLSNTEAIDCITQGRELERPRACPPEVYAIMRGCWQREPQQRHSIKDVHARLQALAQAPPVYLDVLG
Chain of Ret (P07949 29-1114, species assumed): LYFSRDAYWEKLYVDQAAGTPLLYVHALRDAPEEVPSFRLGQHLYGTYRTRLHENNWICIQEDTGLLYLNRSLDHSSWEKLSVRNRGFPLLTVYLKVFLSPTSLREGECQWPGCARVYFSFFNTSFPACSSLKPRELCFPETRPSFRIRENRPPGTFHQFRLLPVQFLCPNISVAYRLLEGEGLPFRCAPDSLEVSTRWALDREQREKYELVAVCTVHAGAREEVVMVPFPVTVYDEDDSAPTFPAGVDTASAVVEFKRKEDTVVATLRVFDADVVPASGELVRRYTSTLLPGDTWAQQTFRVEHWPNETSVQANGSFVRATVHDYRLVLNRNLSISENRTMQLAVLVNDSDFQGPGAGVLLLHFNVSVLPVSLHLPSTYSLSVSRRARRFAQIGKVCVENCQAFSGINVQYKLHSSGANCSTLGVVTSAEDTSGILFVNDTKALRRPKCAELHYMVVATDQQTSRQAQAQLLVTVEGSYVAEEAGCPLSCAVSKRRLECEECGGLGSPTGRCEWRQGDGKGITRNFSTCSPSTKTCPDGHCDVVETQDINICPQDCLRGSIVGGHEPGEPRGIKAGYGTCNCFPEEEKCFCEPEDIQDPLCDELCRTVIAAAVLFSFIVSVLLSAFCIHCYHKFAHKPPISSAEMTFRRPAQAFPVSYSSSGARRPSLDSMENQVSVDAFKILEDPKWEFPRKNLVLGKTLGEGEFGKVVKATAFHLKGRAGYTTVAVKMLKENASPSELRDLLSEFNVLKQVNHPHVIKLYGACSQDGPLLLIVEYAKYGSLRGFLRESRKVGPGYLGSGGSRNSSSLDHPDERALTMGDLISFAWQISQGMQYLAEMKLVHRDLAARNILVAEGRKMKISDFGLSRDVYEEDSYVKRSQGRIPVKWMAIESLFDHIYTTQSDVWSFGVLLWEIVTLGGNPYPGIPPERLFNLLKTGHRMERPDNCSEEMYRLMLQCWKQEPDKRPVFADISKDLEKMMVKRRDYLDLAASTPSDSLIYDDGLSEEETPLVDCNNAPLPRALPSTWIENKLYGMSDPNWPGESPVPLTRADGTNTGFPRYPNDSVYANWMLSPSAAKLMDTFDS
Chain of Flt1 (P17948 27-1338, species assumed): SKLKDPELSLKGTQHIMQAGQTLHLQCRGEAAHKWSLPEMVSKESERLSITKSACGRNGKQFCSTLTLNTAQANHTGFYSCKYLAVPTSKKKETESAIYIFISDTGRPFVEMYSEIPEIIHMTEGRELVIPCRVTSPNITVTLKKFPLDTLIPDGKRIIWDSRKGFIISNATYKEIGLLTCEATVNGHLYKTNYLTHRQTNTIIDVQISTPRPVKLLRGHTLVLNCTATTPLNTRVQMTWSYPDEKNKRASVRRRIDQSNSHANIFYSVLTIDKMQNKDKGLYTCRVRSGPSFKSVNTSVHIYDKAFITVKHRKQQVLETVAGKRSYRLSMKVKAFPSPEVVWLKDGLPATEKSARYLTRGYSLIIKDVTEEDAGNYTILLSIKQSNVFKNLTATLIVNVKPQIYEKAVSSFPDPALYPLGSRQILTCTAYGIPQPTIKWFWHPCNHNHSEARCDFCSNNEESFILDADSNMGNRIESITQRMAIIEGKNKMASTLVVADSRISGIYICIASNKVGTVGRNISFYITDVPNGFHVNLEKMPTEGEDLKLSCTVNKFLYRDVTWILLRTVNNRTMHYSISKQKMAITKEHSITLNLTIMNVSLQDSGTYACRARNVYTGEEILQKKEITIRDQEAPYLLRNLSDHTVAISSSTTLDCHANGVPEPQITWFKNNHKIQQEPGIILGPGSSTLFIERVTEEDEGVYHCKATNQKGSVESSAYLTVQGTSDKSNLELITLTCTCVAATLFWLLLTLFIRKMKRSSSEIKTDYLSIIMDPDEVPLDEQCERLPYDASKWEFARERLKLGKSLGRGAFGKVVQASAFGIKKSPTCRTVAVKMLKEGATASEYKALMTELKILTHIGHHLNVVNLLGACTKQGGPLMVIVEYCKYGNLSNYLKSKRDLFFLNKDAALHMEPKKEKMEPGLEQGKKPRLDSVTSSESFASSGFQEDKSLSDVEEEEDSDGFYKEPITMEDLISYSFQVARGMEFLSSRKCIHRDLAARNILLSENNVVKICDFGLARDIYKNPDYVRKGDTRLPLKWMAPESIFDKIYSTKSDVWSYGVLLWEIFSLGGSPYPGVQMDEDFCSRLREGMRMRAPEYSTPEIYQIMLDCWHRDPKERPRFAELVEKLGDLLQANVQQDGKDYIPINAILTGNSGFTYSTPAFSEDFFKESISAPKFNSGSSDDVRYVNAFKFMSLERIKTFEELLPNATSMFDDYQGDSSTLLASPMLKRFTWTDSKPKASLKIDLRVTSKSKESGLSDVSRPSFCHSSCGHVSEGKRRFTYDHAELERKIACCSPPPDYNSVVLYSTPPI
Chain of PDGFRβ (P09619 33-1106, species assumed): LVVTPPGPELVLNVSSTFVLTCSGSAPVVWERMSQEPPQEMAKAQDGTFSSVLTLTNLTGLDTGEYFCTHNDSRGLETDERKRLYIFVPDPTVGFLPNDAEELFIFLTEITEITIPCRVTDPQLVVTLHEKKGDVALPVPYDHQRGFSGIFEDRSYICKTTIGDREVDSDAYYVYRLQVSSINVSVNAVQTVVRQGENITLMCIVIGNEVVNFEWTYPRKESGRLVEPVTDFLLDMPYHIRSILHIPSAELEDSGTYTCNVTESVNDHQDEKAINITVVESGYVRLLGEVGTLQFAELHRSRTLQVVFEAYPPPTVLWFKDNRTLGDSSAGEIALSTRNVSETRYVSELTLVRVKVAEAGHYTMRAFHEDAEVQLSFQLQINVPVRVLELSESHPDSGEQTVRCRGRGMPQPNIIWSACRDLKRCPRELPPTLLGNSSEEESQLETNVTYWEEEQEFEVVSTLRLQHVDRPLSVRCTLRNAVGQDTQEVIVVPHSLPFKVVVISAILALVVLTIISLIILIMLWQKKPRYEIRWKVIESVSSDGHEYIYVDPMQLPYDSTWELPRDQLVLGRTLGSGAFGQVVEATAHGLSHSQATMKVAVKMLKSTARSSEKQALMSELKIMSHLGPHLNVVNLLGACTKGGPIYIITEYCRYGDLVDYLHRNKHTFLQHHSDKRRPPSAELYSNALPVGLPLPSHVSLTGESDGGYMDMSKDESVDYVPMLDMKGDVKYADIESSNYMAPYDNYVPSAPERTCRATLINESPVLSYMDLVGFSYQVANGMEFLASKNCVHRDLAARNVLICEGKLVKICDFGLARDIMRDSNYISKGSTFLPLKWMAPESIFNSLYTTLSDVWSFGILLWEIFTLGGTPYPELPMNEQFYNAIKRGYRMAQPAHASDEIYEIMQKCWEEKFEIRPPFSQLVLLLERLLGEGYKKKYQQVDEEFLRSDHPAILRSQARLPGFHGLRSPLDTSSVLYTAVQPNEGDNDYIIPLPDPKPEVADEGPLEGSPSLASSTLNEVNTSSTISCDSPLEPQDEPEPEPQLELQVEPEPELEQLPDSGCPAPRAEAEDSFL

Inhibition of PDGFRβ (PDGFRβ): potent, low nM inhibition
Inhibition of Ret (Ret): potent, low nM inhibition
Inhibition of Tyro3 (Tyro3): similarly as AXL
Inhibition of TrkA (TrkA): potent, low nM inhibition
Inhibition of MER (MER): similarly as AXL
Inhibition of Flt1 (Flt1): potent, low nM inhibition
Inhibition of Jak2 (Jak2): potent, low nM inhibition
Compound: Cc1c[nH]c2nc(Nc3ccc(N4CCN(C)CC4)c(F)c3)nc(-c3cccc(CC#N)c3)c12 [SGI-7079]
Sensitivity of mesenchymal cells (NSCLC cell lines; SGI-7079 versus erlotinib, p<0.001 by Wilcoxon test): relatively sensitive
Fold more sensitive, mesenchymal versus epithelial cells (NSCLC cell lines; p-value 0.17, not statistically significant): 1.3 fold
